Biological target: Serine/threonine-protein kinase/endoribonuclease IRE1 (Homo sapiens, UniProt O75460)
Assay: In Vitro FRET Assay
Description: In vitro FRET assay was performed to evaluate the ability of select compounds to inhibit IRE1, the results of which are summarized in Table 3. To perform the in vitro FRET assay, 1× complete assay buffer (CAB; […], 50 mM sodium citrate pH 7.15, 1 mM magnesium acetate, 0.02% tween 20) was used to dilute SignalChem IRE1α protein to a final concentration of 2 nM. Selected compounds were serially diluted with DMSO in a non-binding black 384-well plate for a total of 15 ul in each well. 2 ul of the serially diluted compound or DMSO control were then added to new wells containing 98 ul of 1×CAB, for a total volume of 100 ul, 10 ul of which were then transferred to wells of a new plate. 5 ul of the diluted IRE1α was then added to each well. 5 ul of a […] was then added to each well. Fluorescence was then read over 30 minutes in kinetic mode (485/515 nm).Two RNA probes were used, XBP1 wildtype (SEQ ID NO: 2) which is able to be spliced by active IRE1α or XBP1 mutant (SEQ ID NO: 3) which is unable to be spliced. Each probe contained a 5′ 6-FAM modification and a 3′ IOWA Black FQ modification.A second FRET assay was performed to assess ATP-mediated inhibition. In this case, compounds and IRE1α were prepared and combined as discussed above, with the addition of ATP up to 1 mM final concentration. This mixture was incubated at room temperature for 60 minutes and then 5 ul of 400 nM XBP1 wildtype or mutant RNA probe was added. Plates were then read over 30 minutes in kinetic mode (485/515 nm) and rate of fluorescence increase calculated for different compound dilutions to determine IC50.

Serine/threonine-protein kinase/endoribonuclease IRE1, sequence (O75460 whole entry): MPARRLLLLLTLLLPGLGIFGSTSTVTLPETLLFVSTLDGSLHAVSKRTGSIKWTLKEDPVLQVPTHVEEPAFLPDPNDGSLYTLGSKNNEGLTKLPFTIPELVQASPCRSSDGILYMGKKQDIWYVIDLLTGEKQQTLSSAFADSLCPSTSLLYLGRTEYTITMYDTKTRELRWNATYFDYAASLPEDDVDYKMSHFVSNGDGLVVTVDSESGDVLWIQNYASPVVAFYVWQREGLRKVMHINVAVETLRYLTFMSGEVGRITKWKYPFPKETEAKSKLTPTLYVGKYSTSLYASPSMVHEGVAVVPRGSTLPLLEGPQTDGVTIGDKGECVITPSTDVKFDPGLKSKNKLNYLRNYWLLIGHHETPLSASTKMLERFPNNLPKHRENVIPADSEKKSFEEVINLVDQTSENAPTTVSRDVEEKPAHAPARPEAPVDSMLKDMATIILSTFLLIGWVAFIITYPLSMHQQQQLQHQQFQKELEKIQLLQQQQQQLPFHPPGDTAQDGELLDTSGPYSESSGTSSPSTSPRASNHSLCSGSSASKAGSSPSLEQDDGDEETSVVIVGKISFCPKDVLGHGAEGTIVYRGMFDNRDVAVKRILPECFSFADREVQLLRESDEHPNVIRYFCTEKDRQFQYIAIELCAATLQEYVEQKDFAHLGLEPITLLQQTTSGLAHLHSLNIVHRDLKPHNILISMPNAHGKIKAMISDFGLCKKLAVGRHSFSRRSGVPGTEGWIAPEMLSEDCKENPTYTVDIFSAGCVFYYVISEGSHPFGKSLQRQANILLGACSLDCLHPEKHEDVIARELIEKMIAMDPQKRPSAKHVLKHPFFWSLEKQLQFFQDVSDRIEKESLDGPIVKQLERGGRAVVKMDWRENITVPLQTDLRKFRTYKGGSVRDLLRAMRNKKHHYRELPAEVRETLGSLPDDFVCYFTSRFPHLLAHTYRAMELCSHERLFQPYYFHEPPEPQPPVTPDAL

IC50, < 1 nM:
CN(C)C1CCC(Nc2ncc(/C=C/c3ccc(NS(=O)(=O)c4cccc(F)c4Cl)nc3)cn2)CC1 (configuration not stated) [US11945784, Compound 68]
CN(C)C1CCC(Nc2ncc(/C=C/c3ccc(NS(=O)(=O)c4cccc(Cl)c4Cl)nc3)cn2)CC1 (configuration not stated) [US11945784, Compound 63]
COc1nc(NS(=O)(=O)c2ccccc2Cl)ccc1/C=C/c1cnc(NC2CCC(N3CCCCC3)CC2)nc1 (configuration not stated) [US11945784, Compound 60]
COc1nc(NS(=O)(=O)c2cnccc2Cl)ccc1/C=C/c1cnc(NC2CCC(N(C)C)CC2)nc1 (configuration not stated) [US11945784, Compound 56]
CN(C)C1CCC(Nc2ncc(/C=C/c3ccc(NS(=O)(=O)c4ccc(F)cc4Cl)nc3)cn2)CC1 (configuration not stated) [US11945784, Compound 61]
NC1CCC(Nc2ncc(/C=C/c3ccc(NS(=O)(=O)c4ccccc4Cl)nn3)cn2)CC1 (configuration not stated) [US11945784, Compound 2]
CNC1CCC(Nc2ncc(/C=C/c3cc(F)c(NS(=O)(=O)c4ccccc4Cl)nc3OC)cn2)CC1 (configuration not stated) [US11945784, Compound 59]
COc1nc(NS(=O)(=O)c2ccccc2Cl)ccc1/C=C/c1cnc(NC2CCC(N3CCSCC3)CC2)nc1 (configuration not stated) [US11945784, Compound 64]
CN(C)C1CCC(Nc2ncc(/C=C/c3ccc(NS(=O)(=O)c4ccccc4Cl)nn3)cn2)CC1 (configuration not stated) [US11945784, Compound 52]
COc1nc(NS(=O)(=O)c2ccccc2Cl)c(F)cc1/C=C/c1cnc(NC2CCC(N)CC2)nc1 (configuration not stated) [US11945784, Compound 54]
COc1nc(NS(=O)(=O)c2ccccc2Cl)ccc1/C=C/c1cnc(NC2CCC(N3CCOCC3)CC2)nc1 (configuration not stated) [US11945784, Compound 57]
Cc1nc(NS(=O)(=O)c2ccccc2Cl)c(F)cc1/C=C/c1cnc(NC2CCC(N)CC2)nc1 (configuration not stated) [US11945784, Compound 58]
COc1c(/C=C/c2cnc(NC3CCC(N(C)C)CC3)nc2)ccc(NS(=O)(=O)c2ccccc2Cl)c1F (configuration not stated) [US11945784, Compound 66]
COc1cc(NS(=O)(=O)c2cnccc2Cl)ccc1/C=C/c1cnc(NC2CCC(N(C)C)CC2)nc1 (configuration not stated) [US11945784, Compound 65]
NC1CCC(Nc2ncc(/C=C/c3ccc(NS(=O)(=O)c4ccccc4Cl)c(F)c3)cn2)CC1 (configuration not stated) [US11945784, Compound 3]
Cc1nc(NS(=O)(=O)c2cnccc2Cl)ccc1/C=C/c1cnc(NC2CCC(N(C)C)CC2)nc1 (configuration not stated) [US11945784, Compound 62]
COc1cc(NS(=O)(=O)c2ccccc2Cl)c(F)cc1/C=C/c1cnc(NC2CCC(N(C)C)CC2)nc1 (configuration not stated) [US11945784, Compound 67]

Source: BindingDB's records for patent US11945784 (Cornell University, 2024)
